Laboratory results published in patent US11427549B2, “Pyrimidinyloxy benzo-fused compounds as herbicides” (FMC Corporation, priority 2017, dated 2022).

Tests used:
[1] = system: barnyardgrass (Echinochloa crus-galli); test: Test A preemergence, barnyardgrass; format: in vivo; details: Echinochloa crus-galli, pre-emergence, 240 h, 0 to 100 scale (0 no effect, 100 complete control), read-out: Plant response rating, Barnyardgrass; for pest or weed control at 31 g/ha: 31 g ai/ha; for pest or weed control at 125 g/ha: 125 g ai/ha
kochia (Kochia scoparia) [2] = test: Test A preemergence, kochia; format: in vivo; details: Bassia scoparia, pre-emergence, 240 h, 0 to 100 scale (0 no effect, 100 complete control), read-out: Plant response rating, Kochia; for pest or weed control at 31 g/ha: 31 g ai/ha; for pest or weed control at 125 g/ha: 125 g ai/ha
[3] = system: ragweed (common ragweed, Ambrosia elatior); test: Test A preemergence, ragweed; format: in vivo; details: Ambrosia artemisiifolia, pre-emergence, 240 h, 0 to 100 scale (0 no effect, 100 complete control), read-out: Plant response rating, Ragweed; for pest or weed control at 31 g/ha: 31 g ai/ha; for pest or weed control at 125 g/ha: 125 g ai/ha
[4] = system: ryegrass, Italian (Italian ryegrass, Lolium multiflorum); test: Test A preemergence, ryegrass, Italian; format: in vivo; details: Lolium multiflorum, pre-emergence, 240 h, 0 to 100 scale (0 no effect, 100 complete control), read-out: Plant response rating, Ryegrass, Italian; for pest or weed control at 31 g/ha: 31 g ai/ha; for pest or weed control at 125 g/ha: 125 g ai/ha
[5] = system: pigweed (Amaranthus retroflexus); test: Test A preemergence, pigweed; format: in vivo; details: Amaranthus retroflexus, pre-emergence, 240 h, 0 to 100 scale (0 no effect, 100 complete control), read-out: Plant response rating, Pigweed; for pest or weed control at 31 g/ha: 31 g ai/ha; for pest or weed control at 125 g/ha: 125 g ai/ha
[6] = system: barnyardgrass (Echinochloa crus-galli); test: Test A postemergence, barnyardgrass; format: in vivo; details: Echinochloa crus-galli, post-emergence, 240 h, 0 to 100 scale (0 no effect, 100 complete control), read-out: Plant response rating, Barnyardgrass; for pest or weed control at 31 g/ha: 31 g ai/ha; for pest or weed control at 125 g/ha: 125 g ai/ha
kochia (Kochia scoparia) [7] = test: Test A postemergence, kochia; format: in vivo; details: Bassia scoparia, post-emergence, 240 h, 0 to 100 scale (0 no effect, 100 complete control), read-out: Plant response rating, Kochia; for pest or weed control at 31 g/ha: 31 g ai/ha; for pest or weed control at 125 g/ha: 125 g ai/ha
[8] = system: ragweed (common ragweed, Ambrosia elatior); test: Test A postemergence, ragweed; format: in vivo; details: Ambrosia artemisiifolia, post-emergence, 240 h, 0 to 100 scale (0 no effect, 100 complete control), read-out: Plant response rating, Ragweed; for pest or weed control at 31 g/ha: 31 g ai/ha; for pest or weed control at 125 g/ha: 125 g ai/ha
[9] = system: ryegrass, Italian (Italian ryegrass, Lolium multiflorum); test: Test A postemergence, ryegrass, Italian; format: in vivo; details: Lolium multiflorum, post-emergence, 240 h, 0 to 100 scale (0 no effect, 100 complete control), read-out: Plant response rating, Ryegrass, Italian; for pest or weed control at 31 g/ha: 31 g ai/ha; for pest or weed control at 125 g/ha: 125 g ai/ha
[10] = system: pigweed (Amaranthus retroflexus); test: Test A postemergence, pigweed; format: in vivo; details: Amaranthus retroflexus, post-emergence, 240 h, 0 to 100 scale (0 no effect, 100 complete control), read-out: Plant response rating, Pigweed; for pest or weed control at 31 g/ha: 31 g ai/ha; for pest or weed control at 125 g/ha: 125 g ai/ha
[11] = system: wheat (Triticum aestivum); test: Test A postemergence, wheat; format: in vivo; details: Triticum aestivum, post-emergence, 240 h, 0 to 100 scale (0 no effect, 100 complete control), read-out: Plant response rating, Wheat; for plant injury at 31 g/ha: 31 g ai/ha; for plant injury at 125 g/ha: 125 g ai/ha
corn (Zea mays) = test: Test A postemergence, corn; format: in vivo; details: Zea mays, post-emergence, 240 h, 0 to 100 scale (0 no effect, 100 complete control); for Corn plant response rating (crop injury, 0 = no effect, 100 = complete kill) at 31 g/ha: 31 g ai/ha; for Corn plant response rating (crop injury, 0 = no effect, 100 = complete kill) at 125 g/ha: 125 g ai/ha
[12] = system: blackgrass (Alopecurus myosuroides); test: Test A postemergence, blackgrass; format: in vivo; details: Alopecurus myosuroides, post-emergence, 240 h, 0 to 100 scale (0 no effect, 100 complete control), read-out: Plant response rating, Blackgrass; for pest or weed control at 31 g/ha: 31 g ai/ha; for pest or weed control at 125 g/ha: 125 g ai/ha
[13] = system: galium (catchweed bedstraw, Galium aparine); test: Test A postemergence, galium; format: in vivo; details: Galium, post-emergence, 240 h, 0 to 100 scale (0 no effect, 100 complete control), read-out: Plant response rating, Galium; for pest or weed control at 31 g/ha: 31 g ai/ha; for pest or weed control at 125 g/ha: 125 g ai/ha
rice (Oryza sativa) = test: Test B flooded paddy test, rice; details: Oryza sativa, read-out: Plant response rating, Rice (0 to 100 scale, 0 is no effect, 100 is complete control)
[14] = system: ducksalad (Heteranthera limosa); test: Test B flooded paddy test, ducksalad; details: Heteranthera limosa, read-out: Plant response rating, Ducksalad (0 to 100 scale, 0 is no effect, 100 is complete control)
[15] = system: barnyardgrass (Echinochloa crus-galli); test: Test B flooded paddy test, barnyardgrass; details: Echinochloa crus-galli, read-out: Plant response rating, Barnyardgrass (0 to 100 scale, 0 is no effect, 100 is complete control)

Row | Compound | pest or weed control at 31 g/ha [1] [%] | pest or weed control at 125 g/ha [1] [%] | pest or weed control at 31 g/ha (kochia (Kochia scoparia) [2]) [%] | pest or weed control at 125 g/ha (kochia (Kochia scoparia) [2]) [%] | pest or weed control at 31 g/ha [3] [%] | pest or weed control at 125 g/ha [3] [%] | pest or weed control at 31 g/ha [4] [%] | pest or weed control at 125 g/ha [4] [%] | pest or weed control at 31 g/ha [5] [%] | pest or weed control at 125 g/ha [5] [%] | pest or weed control at 31 g/ha [6] [%] | pest or weed control at 125 g/ha [6] [%] | pest or weed control at 31 g/ha (kochia (Kochia scoparia) [7]) [%] | pest or weed control at 125 g/ha (kochia (Kochia scoparia) [7]) [%] | pest or weed control at 31 g/ha [8] [%] | pest or weed control at 125 g/ha [8] [%] | pest or weed control at 31 g/ha [9] [%] | pest or weed control at 125 g/ha [9] [%] | pest or weed control at 31 g/ha [10] [%] | pest or weed control at 125 g/ha [10] [%] | other results
1 | O=C1c2cccc(Oc3ncc(Cl)cn3)c2C1CCCC(F)(F)F (stereo not shown) [Compound 22, 2-[(5-Chloro-2-pyrimidinyl)oxy]-8-(4,4,4-trifluorobutyl)bicyclo[4.2.0]octa-1,3,5-trien-7-one] | 0 | 60 | 20 | 80 | 0 | 0 | 0 | 20 | 0 | 30 | 20 | 40 | 40 | 80 | 0 | 20 | 30 | 20 | 30 | 80 | plant injury at 31 g/ha [11]: 0%; plant injury at 125 g/ha [11]: 0%; Corn plant response rating (crop injury, 0 = no effect, 100 = complete kill) at 31 g/ha (corn (Zea mays)): 20%; Corn plant response rating (crop injury, 0 = no effect, 100 = complete kill) at 125 g/ha (corn (Zea mays)): 30%; pest or weed control at 31 g/ha [12]: 0%; pest or weed control at 125 g/ha [12]: 50%; pest or weed control at 31 g/ha [13]: 50%; pest or weed control at 125 g/ha [13]: 80%; plant injury at 250 g/ha (rice (Oryza sativa)): 0%; pest or weed control at 250 g/ha [14]: 80%; pest or weed control at 250 g/ha [15]: 35%
2 | FC(F)(F)CCCC1OCCc2cccc(Oc3ncc(Cl)cn3)c21 (stereo not shown) [Compound 27, 5-Chloro-2-[[3,4-dihydro-1-(4,4,4-trifluorobutyl)-1H-2-benzopyran-8-yl]oxy]pyrimidine] | 10 | 80 | 0 | 0 | 0 | 0 | 0 | 20 | 30 | 50 | 20 | 30 | 10 | 10 | 0 | 10 | 10 | 40 | 50 | 70 | plant injury at 31 g/ha [11]: 0%; plant injury at 125 g/ha [11]: 10%; Corn plant response rating (crop injury, 0 = no effect, 100 = complete kill) at 31 g/ha (corn (Zea mays)): 20%; Corn plant response rating (crop injury, 0 = no effect, 100 = complete kill) at 125 g/ha (corn (Zea mays)): 30%; pest or weed control at 31 g/ha [12]: 20%; pest or weed control at 125 g/ha [12]: 40%; pest or weed control at 31 g/ha [13]: 40%; pest or weed control at 125 g/ha [13]: 80%; plant injury at 250 g/ha (rice (Oryza sativa)): 0%; pest or weed control at 250 g/ha [14]: 95%; pest or weed control at 250 g/ha [15]: 0%
3 | FC(F)(F)CCC1OCCc2cccc(Oc3ncc(Cl)cn3)c21 (stereo not shown) [Compound 32, 5-Chloro-2-[[3,4-dihydro-1-(3,3,3-trifluoropropyl)-1H-2-benzopyran-8-yl]oxy]pyrimidine] | 0 | 40 | 0 | 0 | 0 | 0 | 0 | 0 | 0 | 60 | 10 | 20 | 0 | 10 | 0 | 0 | 0 | 0 | 20 | 40 | plant injury at 31 g/ha [11]: 0%; plant injury at 125 g/ha [11]: 10%; Corn plant response rating (crop injury, 0 = no effect, 100 = complete kill) at 31 g/ha (corn (Zea mays)): 10%; Corn plant response rating (crop injury, 0 = no effect, 100 = complete kill) at 125 g/ha (corn (Zea mays)): 20%; pest or weed control at 31 g/ha [12]: 10%; pest or weed control at 125 g/ha [12]: 30%; pest or weed control at 31 g/ha [13]: 10%; pest or weed control at 125 g/ha [13]: 20%; plant injury at 250 g/ha (rice (Oryza sativa)): 0%; pest or weed control at 250 g/ha [14]: 95%; pest or weed control at 250 g/ha [15]: 0%
4 | O=C1O[C@H](CCC(F)(F)F)c2c(Oc3ncc(Cl)cn3)cccc21 [Compound 19, (3R)-4-[(5-Chloro-2-pyrimidinyl)oxy]-3-(3,3,3-trifluoropropyl)-1(3H)-isobenzofuranone] | 80 | 100 | 90 | 100 | 0 | 60 | 10 | 90 | 100 | 100 | 50 | 100 | 80 | 100 | 30 | 70 | 80 | 100 | 100 | 100 | plant injury at 31 g/ha [11]: 20%; plant injury at 125 g/ha [11]: 100%; Corn plant response rating (crop injury, 0 = no effect, 100 = complete kill) at 31 g/ha (corn (Zea mays)): 40%; Corn plant response rating (crop injury, 0 = no effect, 100 = complete kill) at 125 g/ha (corn (Zea mays)): 70%; pest or weed control at 31 g/ha [12]: 100%; pest or weed control at 125 g/ha [12]: 100%; pest or weed control at 31 g/ha [13]: 90%; pest or weed control at 125 g/ha [13]: 100%; plant injury at 250 g/ha (rice (Oryza sativa)): 50%; pest or weed control at 250 g/ha [14]: 100%; pest or weed control at 250 g/ha [15]: 60%
